Assay: Stability testing against formation of the impurities atorvastatin-epoxy-dihydroxy (AED) and epoxydiketone on storage
Format: physicochemical
Design: key to ATV-epoxy-diketone: impurity content in % (w/w)
Method: As used herein, the term “stable” in reference to atorvastatin hemi-calcium Form VIII relates to the formation of […] 0.01% (w/w) of the impurity AED. The stability of Form VIII is measured by maintaining Form VIII at a temperature of about 40° C. at a relative humidity of about 75% for at least about 1 month, or at a temperature of about 25° C. at a relative humidity of about 60% for at least about 6 months. Stable atorvastatin hemi-calcium Form VIII is a Form VIII in which no more than about 0.01% (w/w) of the AED impurity is formed when maintained under the conditions specified above.
The atorvastatin hemi-calcium crystalline produced above was dried by two steps: In a vacuum dryer at about 40° C. by 3 cycles and after the LOD<5% was reached the drying was continued in a fluid bed dryer at about 50° C. The dry material was milled and micronized.
The dried, milled, atorvastatin hemi-calcium crystalline was tested for stability against the formation of two potential impurities: atorvastatin-epoxy-dihydroxy (AED) and epoxydiketone.

[1] = 0 (5 m at storage) (Test Sample B)
[2] = 1 m/25° C./60% RH (Test Sample E)
[3] = 1 m/40° C./75% RH (Test Sample I)
[4] = 2 m/25° C./60% RH (Test Sample F)
[5] = 2 m/40° C./75% RH (Test Sample J)
[6] = 3 m/25° C./60% RH (Test Sample G)
[7] = 3 m/40° C./75% RH (Test Sample K)
[8] = 6 m/25° C./60% RH (Test Sample H)
[9] = 6 m/40° C./75% RH (Test Sample L)

ATV-epoxy-dihydroxy (AED) [1]: < 0.01 % (w/w)
ATV-epoxy-diketone [1]: <0.01
ATV-epoxy-dihydroxy (AED) [2]: < 0.01 % (w/w)
ATV-epoxy-diketone [2]: <0.01
ATV-epoxy-dihydroxy (AED) [3]: < 0.01 % (w/w)
ATV-epoxy-diketone [3]: <0.05
ATV-epoxy-dihydroxy (AED) [4]: < 0.01 % (w/w)
ATV-epoxy-diketone [4]: <0.05
ATV-epoxy-dihydroxy (AED) [5]: < 0.05 % (w/w)
ATV-epoxy-diketone [5]: <0.05
ATV-epoxy-dihydroxy (AED) (3 m/2-8° C. (Test Sample C)): < 0.01 % (w/w)
ATV-epoxy-diketone (3 m/2-8° C. (Test Sample C)): <0.05
ATV-epoxy-dihydroxy (AED) [6]: < 0.01 % (w/w)
ATV-epoxy-diketone [6]: <0.05
ATV-epoxy-dihydroxy (AED) [7]: < 0.05 % (w/w)
ATV-epoxy-diketone [7]: 0.05
ATV-epoxy-dihydroxy (AED) (6 m/2-8° C. (Test Sample D)): < 0.05 % (w/w)
ATV-epoxy-diketone (6 m/2-8° C. (Test Sample D)): <0.05
ATV-epoxy-dihydroxy (AED) [8]: < 0.01 % (w/w)
ATV-epoxy-diketone [8]: <0.05
ATV-epoxy-dihydroxy (AED) [9]: < 0.05 % (w/w)
ATV-epoxy-diketone [9]: 0.05
ATV-epoxy-dihydroxy (AED) (release (Test Sample A)): < 0.01 % (w/w)
ATV-epoxy-diketone (release (Test Sample A)): <0.01
Compound: CC(C)c1c(C(=O)Nc2ccccc2)c(-c2ccccc2)c(-c2ccc(F)cc2)n1CC[C@@H](O)C[C@@H](O)CC(=O)O (relative stereo) [atorvastatin hemi-calcium crystalline, atorvastatin hemi-calcium]
